Data from PubChem BioAssay AID248 (DTP/NCI, 2004).
Values joined by “and” are separate entries in the source; they are usually repeats but may differ in a detail not shown here. Equal entries are not always repeated. Inconclusive results and toxic doses are left out. Cut-off read from the data, not from the text of the source: active = T/C of 150% or more; inactive = T/C below 125%.

System: L1210 leukemia ip in BDF1 mice, survival T/C
Test: NCI In Vivo Anticancer Drug Screen. Data for tumor model L1210 Leukemia (intraperitoneal) in B6D2F1 (BDF1) mice
Details: endpoint: mean survival time, higher = longer survival
Outline: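 Read-out is survival time, reported as the treated-group measurement over the vehicle-control measurement.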

[1] = dose: 100.0 mg/kg/injection, schedule: Q01DX009 (ip), vehicle: Klucel (hydroxypropylcellulose) (HPC)
[2] = dose: 100.0 mg/kg/injection, schedule: Q04DX003 (ip), vehicle: Klucel (hydroxypropylcellulose) (HPC)
[3] = dose: 200.0 mg/kg/injection, schedule: Q01DX009 (ip), vehicle: Klucel (hydroxypropylcellulose) (HPC)
[4] = dose: 200.0 mg/kg/injection, schedule: Q04DX003 (ip), vehicle: Klucel (hydroxypropylcellulose) (HPC)
[5] = dose: 400.0 mg/kg/injection, schedule: Q01DX009 (ip), vehicle: Klucel (hydroxypropylcellulose) (HPC)
[6] = dose: 400.0 mg/kg/injection, schedule: Q04DX003 (ip), vehicle: Klucel (hydroxypropylcellulose) (HPC)
[7] = dose: 100.0 mg/kg/injection, schedule: Q01DX009 (ip), vehicle: saline with Tween-80
[8] = dose: 200.0 mg/kg/injection, schedule: Q01DX009 (ip), vehicle: saline with Tween-80
[9] = dose: 400.0 mg/kg/injection, schedule: Q01DX009 (ip), vehicle: saline with Tween-80

Measured: T/C

CC1(C)C=C(C(Br)c2cccc(Br)c2)C(=O)c2ccccc21 (stereo not given)
inactive: [1] 101 % of control | [2] 97 % of control | [3] 100 % of control | [4] 95 % of control | [5] 102 % of control | [6] 103 % of control

OC1CSCCc2ccccc21 (stereo not given)
inactive: dose: 100.0 mg/kg/injection, schedule: Q01DX001 (ip), vehicle: other 100 % of control | dose: 200.0 mg/kg/injection, schedule: Q01DX001 (ip), vehicle: other 98 % of control | dose: 400.0 mg/kg/injection, schedule: Q01DX001 (ip), vehicle: other 114 % of control

Cc1ccc(S(=O)(=O)N/N=C/C(O)C(O)C(O)CO)cc1 (stereo not given)
inactive: [7] 94 % of control | dose: 100.0 mg/kg/injection, schedule: Q04DX003 (ip), vehicle: saline with Tween-80 94 % of control | [8] 103 % of control | dose: 200.0 mg/kg/injection, schedule: Q04DX003 (ip), vehicle: saline with Tween-80 94 % of control | [9] 96 % of control | dose: 400.0 mg/kg/injection, schedule: Q04DX003 (ip), vehicle: saline with Tween-80 96 % of control

CCOC(=O)c1cnc(SC)nc1Nc1ccc(Cl)c(Cl)c1
inactive: dose: 100.0 mg/kg/injection, schedule: Q01DX001 (ip), vehicle: Klucel (hydroxypropylcellulose) (HPC) 97 % of control | dose: 200.0 mg/kg/injection, schedule: Q01DX001 (ip), vehicle: Klucel (hydroxypropylcellulose) (HPC) 96 % of control | dose: 400.0 mg/kg/injection, schedule: Q01DX001 (ip), vehicle: Klucel (hydroxypropylcellulose) (HPC) 97 % of control

CCCCCCCCCCCC[N+](C)(C)C.C[As](C)(=O)[O-]
inactive: dose: 6.25 mg/kg/injection, schedule: Q01DX009 (ip), vehicle: saline 101 % of control | dose: 12.5 mg/kg/injection, schedule: Q01DX009 (ip), vehicle: saline 101 % of control | dose: 25.0 mg/kg/injection, schedule: Q01DX009 (ip), vehicle: saline 97 % of control and 101 % of control

C[N+](C)(C)C1CC2CC1C2 (stereo not given)
inactive: dose: 75.0 mg/kg/injection, schedule: Q01DX001 (ip), vehicle: saline 97 % of control

CC1NC(=O)NC1=O (stereo not given)
inactive: [1] 103 % of control | [2] 98 % of control | [3] 95 % of control | [4] 98 % of control | [5] 100 % of control | [6] 101 % of control

c1ccc2c(C3OCC4(CCC4)CO3)cccc2c1
inactive: [1] 91 % of control | [2] 91 % of control | [3] 96 % of control | [4] 100 % of control | [5] 97 % of control | [6] 94 % of control

O=C(NCCCCCSC(=O)c1ccccc1)c1ccccc1
inactive: dose: 100.0 mg/kg/injection, schedule: Q04DX002 (ip), vehicle: Klucel (hydroxypropylcellulose) (HPC) 90 % of control | dose: 200.0 mg/kg/injection, schedule: Q04DX002 (ip), vehicle: Klucel (hydroxypropylcellulose) (HPC) 94 % of control | dose: 400.0 mg/kg/injection, schedule: Q04DX002 (ip), vehicle: Klucel (hydroxypropylcellulose) (HPC) 90 % of control

CC(C)(C)[Se]C(=N)N
inactive: dose: 18.8 mg/kg/injection, schedule: Q01DX001 (ip), vehicle: saline with Tween-80 101 % of control | dose: 37.5 mg/kg/injection, schedule: Q01DX001 (ip), vehicle: saline with Tween-80 100 % of control | dose: 50.0 mg/kg/injection, schedule: Q01DX001 (ip), vehicle: saline with Tween-80 107 % of control | dose: 75.0 mg/kg/injection, schedule: Q01DX001 (ip), vehicle: saline with Tween-80 95 % of control

COc1cc(C)ccc1C(=O)c1ccc(C)cc1OC
inactive: dose: 100.0 mg/kg/injection, schedule: Q01DX001 (ip), vehicle: saline with Tween-80 100 % of control | [7] 98 % of control | [2] 86 % of control | dose: 200.0 mg/kg/injection, schedule: Q01DX001 (ip), vehicle: saline with Tween-80 100 % of control | [8] 92 % of control | [4] 93 % of control | dose: 400.0 mg/kg/injection, schedule: Q01DX001 (ip), vehicle: saline with Tween-80 92 % of control | [9] 103 % of control | [6] 93 % of control
